The record followed here is patent US20260356860A1, “2-SUBSTITUTED 3,4A,5,7,8,8A-HEXAHYDRO-4H-THIOPYRANO[4,3-DJPYRIMIDIN-4-ONES FOR WOUND TREATMENT” (priority 2022, published 2026).

The test system of data set [1] is HEK293 SuperTOPFlash reporter cells, Wnt promoter. The data set is described as follows: HEK CELL Wnt Assay (luciferase reporter). The following applies: for pIC50: serial dilutions, with or without 50 ng/mL Wnt3a, 18 h. In kind it is cell-based. Here is the method: In order to determine the effect of the compounds of Formula (I) on Wnt inhibition, an in vitro assay using HEK293 SuperTOPFlash reporter cells, with the Wnt promoter driving a luciferase reporter gene, were utilized. 40,000 HEK293 SuperTOPFlash reporter cells were seeded, per well, in a 48 well plate for 24 hours, prior to administration of serial dilutions of the compound of Formula (I) to individual wells. Serial dilutions ranging from […] to 1 nM of the compound of Formula (I) were added with or without 50 ng/mL Wnt3a (Time Biosciences) and allowed to incubate with the reporter cells for 18 hours. Reporter cells with no treatment were used as negative control.
A general note: In a reporter assay the amount or activity of a reporter protein is the signal.

A further data set concerns the target T1, Tankyrase 2 (TNKS2) (Homo sapiens, UniProt Q9H2K2).
T1 sequence (Q9H2K2 1-1166): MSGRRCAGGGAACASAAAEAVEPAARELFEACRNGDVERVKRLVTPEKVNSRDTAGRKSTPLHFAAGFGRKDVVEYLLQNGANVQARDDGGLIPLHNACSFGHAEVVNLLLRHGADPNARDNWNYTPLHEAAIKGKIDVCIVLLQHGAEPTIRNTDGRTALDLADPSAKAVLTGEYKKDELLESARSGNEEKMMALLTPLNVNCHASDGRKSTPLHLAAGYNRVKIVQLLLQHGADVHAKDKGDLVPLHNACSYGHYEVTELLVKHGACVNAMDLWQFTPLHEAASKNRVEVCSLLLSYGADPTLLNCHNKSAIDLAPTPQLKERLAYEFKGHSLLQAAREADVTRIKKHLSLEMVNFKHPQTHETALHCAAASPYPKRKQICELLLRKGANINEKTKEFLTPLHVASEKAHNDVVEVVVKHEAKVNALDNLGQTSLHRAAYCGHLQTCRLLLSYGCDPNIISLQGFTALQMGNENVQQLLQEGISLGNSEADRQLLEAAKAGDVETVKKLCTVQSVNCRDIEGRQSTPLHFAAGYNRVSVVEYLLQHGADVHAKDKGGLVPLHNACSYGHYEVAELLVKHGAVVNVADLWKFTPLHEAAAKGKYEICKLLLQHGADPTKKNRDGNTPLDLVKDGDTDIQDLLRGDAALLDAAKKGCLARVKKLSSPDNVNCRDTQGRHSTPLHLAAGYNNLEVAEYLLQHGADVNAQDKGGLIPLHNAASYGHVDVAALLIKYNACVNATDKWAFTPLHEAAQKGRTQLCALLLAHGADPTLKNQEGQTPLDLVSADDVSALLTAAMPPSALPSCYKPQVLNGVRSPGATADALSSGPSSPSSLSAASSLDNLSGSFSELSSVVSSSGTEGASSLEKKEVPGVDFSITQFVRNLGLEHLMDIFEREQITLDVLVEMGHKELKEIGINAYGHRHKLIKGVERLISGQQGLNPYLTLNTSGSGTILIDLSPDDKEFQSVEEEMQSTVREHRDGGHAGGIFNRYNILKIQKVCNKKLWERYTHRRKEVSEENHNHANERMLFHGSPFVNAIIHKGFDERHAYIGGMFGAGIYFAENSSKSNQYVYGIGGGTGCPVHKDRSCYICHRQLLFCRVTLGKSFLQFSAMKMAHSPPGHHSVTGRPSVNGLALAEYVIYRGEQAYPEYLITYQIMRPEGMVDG
The data set is described as follows: TNK2 Binding Assay (Tankyrase 2 ribosylation, chemiluminescence). Type of data set: biochemical. Here is the method:
Tankyrase 2 assay (n=3) was performed with the following steps: step 1, coating a 96-well plate with 50 μL/well of histone solution; step 2, conducting ribosylation reaction; and step 3, detection.
Step 1: Coating a 96-Well Plate with 50 μL/Well of Histone Solution.
A 5× histone mixture was diluted 1:5 with PBS to make a 1× histone in PBS mixture. 50 μL of the histone mixture was added to each well and incubated at 4° C. overnight. The plate was washed three times using 200 μL PBST buffer (1×PBS containing 0.05% Tween*20 (polysorbate 20) per well. The plate was tapped onto a clean paper towel to remove the liquid. The wells were blocked by adding 200 μL of blocking buffer 3 to each well. The plate was incubated at room temperature for at least 90 minutes. The plate was washed three times with 200 μL PBST buffer. The plate was tapped onto a clean paper towel to remove the liquid.
A fresh solution of 10 mM DTT in water was prepared.
A master mix was prepared and delivered to each well (25 μL/well). Master mix delivered to each well: (2.5 μL of 10×PARP assay buffer (purchased from BPS Bioscience)+2.5 μL of PARP substrate mixture 2+17.5 μL of water+2.5 μL of 10 mM fresh DTT). The concentration of DTT in the master mix was 1 mM. 25 μL of master mix was added to each well.
1×PARP buffer with DTT was prepared. 10×PARP assay buffer was diluted to 1×PARP assay buffer containing DTT by adding 1 volume of 10×PARP assay buffer+1 volume of 10 mM DTT+8 volumes of water. The concentration of DTT in the 1×PARP assay buffer was 1 mM.
5 μL of a test inhibitor was added to each well labeled as “Test Inhibitor.” For the “Positive Control,” the PARP inhibitor, XAV939, was used. For the negative control, no inhibitor is added to the assay mix.
The Tankyrase 2 (TNKS2) enzyme on ice was thawed. The tube containing the enzyme was spun briefly to recover the full content of the tube. The amount of TNKS2 enzyme required for the assay was calculated and the enzyme was diluted to 0.5 ng/μL with 1×PARP assay buffer with DTT. 16) The final concentration of TNKS2 enzyme in the assay was 2 nM. The reaction was initiated by adding 10 μL of diluted TNKS2 enzyme to each well designated “Positive Control” and “Test Inhibitor.” To each well designated as “Blank,” 10 μL of 1×PARP assay buffer with DTT was added. The plate was incubated at room temperature for 1 hour. The plate was washed three times with 100 μL of PBST buffer and the plate was tapped onto a clean paper towel.
1) Streptavidin-HRP was diluted 1:50 in Blocking buffer (purchased from BPS Bioscience) 3.50 μL of diluted Streptavidin-RP was added to each well and incubated for 30 minutes at room temperature. The plate was washed three times with 100 μL of PBST buffer and tapped onto a clean paper towel. Just before use, 1 volume of ELISA ECL Substrate A and 1 volume of ELISA ECL Substrate B were mixed on ice; and 100 μL was added to each well. Immediately, the plate was read in a luminometer or microtiter-plate reader capable of reading chemiluminescence. The “Blank” value was subtracted from all other values.

pIC50: −log10 of the molar value. Where only a bound is given, the exact number is not on record here.

On to `O=c1[nH]c(-c2ccc3c(c2)COB3O)nc2c1CSCC2` [Compound 3, 2-(1-hydroxy-1,3-dihydrobenzo[c][1,2]oxaborol-5-yl)-7,8-dihydro-3H-thiopyrano [4,3-d]pyrimidin-4 (5H)-one], for which the negative-log IC50 (pIC50) in data set [1] was 5.12; on Tankyrase 2 (TNKS2), 7.55.
For `O=c1[nH]c(-c2ccc(-c3nc4c(c(=O)[nH]3)CSCC4)cc2)no1` [Compound 4, 3-(4-(4-oxo-3,5,7,8-tetrahydro-4H-thiopyrano[4,3-d]pyrimidin-2-yl)phenyl)-1,2,4-oxadiazol-5 (4H)-one], the results for the pIC50 (in data set [1]; at Tankyrase 2 (TNKS2)) were under 5.00 and 7.89, respectively.
`O=c1[nH]c(/C=C/c2ccc(C(F)(F)F)cc2)nc2c1CSCC2` [Compound 6, (E)-2-(4-(trifluoromethyl)styryl)-3,5,7,8-tetrahydro-4H-thiopyrano[4,3-d]pyrimidin-4-one]: the pIC50 was 5.70 in data set [1] and 5.60 on Tankyrase 2 (TNKS2).
In the case of `O=c1[nH]c(-c2ccc(-c3cnc(OCCO)nc3)cc2)nc2c1CSCC2` [Compound 11, 2-(4-(2-(2-hydroxyethoxy)pyrimidin-5-yl)phenyl)-3,5,7,8-tetrahydro-4H-thiopyrano[4,3-d]pyrimidin-4-one], in data set [1], the “solubility remark in HEK CELL Wnt assay” value was “solubility issue” and the pIC50 is 7.00. Moreover, the pIC50 at Tankyrase 2 (TNKS2) is 7.68.
For the compound `CC(C)(OCCO)c1ccc(-c2ccc(-c3nc4c(c(=O)[nH]3)CSCC4)cc2)cc1` [Compound 12, 2-(4′-(2-(2-hydroxyethoxy)propan-2-yl)-[1,1′-biphenyl]-4-yl)-3,5,7,8-tetrahydro-4H-thiopyrano[4,3-d]pyrimidin-4-one], the pIC50 is 8.52 in data set [1] and 8.19 on Tankyrase 2 (TNKS2).
The matching figures for `O=c1[nH]c(-c2cc(F)c(B(O)O)c(F)c2)nc2c1CSCC2` [Compound 14, (2,6-difluoro-4-(4-oxo-3,5,7,8-tetrahydro-4H-thiopyrano[4,3-d]pyrimidin-2-yl)phenyl)boronic acid]: 5.10 and 7.96.
The matching figures for `COCCOC(C)(C)c1c(F)cc(-c2nc3c(c(=O)[nH]2)CSCC3)cc1F` [Compound 16, 2-(3,5-difluoro-4-(2-(2-methoxyethoxy)propan-2-yl)phenyl)-3,5,7,8-tetrahydro-4H-thiopyrano[4,3-d]pyrimidin-4-one]: 6.40 and 7.30.
The matching figures for `COCCOC(C)(C)c1ccc(-c2nc3c(c(=O)[nH]2)CSCC3)cc1` [Compound 17, 2-(4-(2-(2-methoxyethoxy)propan-2-yl)phenyl)-3,5,7,8-tetrahydro-4H-thiopyrano[4,3-d]pyrimidin-4-one]: 7.22 and 8.52.
In the case of `O=c1[nH]c(-c2ccc(-c3ccc(Br)nc3)nc2)nc2c1CSCC2` [Compound 19, 2-(6′-bromo-[2,3′-bipyridin]-5-yl)-3,5,7,8-tetrahydro-4H-thiopyrano[4,3-d]pyrimidin-4-one], the pIC50 in data set [1] is 5.60; at Tankyrase 2 (TNKS2), 7.40.
`O=c1[nH]c(-c2cc(F)c(-c3ccc(Br)nc3)c(F)c2)nc2c1CSCC2` [Compound 21, 2-(4-(6-bromopyridin-3-yl)-3,5-difluorophenyl)-3,5,7,8-tetrahydro-4H-thiopyrano[4,3-d]pyrimidin-4-one]: the pIC50 in data set [1] is 5.70; on Tankyrase 2 (TNKS2), 7.92.
On the same counts, the results for `O=c1[nH]c(-c2ccc(-c3ccc(B(O)O)cn3)cc2)nc2c1CSCC2` [Compound 22, (6-(4-(4-oxo-3,5,7,8-tetrahydro-4H-thiopyrano[4,3-d]pyrimidin-2-yl)phenyl)pyridin-3-yl)boronic acid] are 6.60 and 8.40.
Consider `O=c1[nH]c(-c2ccc(-c3ncc(B(O)O)cn3)cc2)nc2c1CSCC2` [Compound 24, (2-(4-(4-oxo-3,5,7,8-tetrahydro-4H-thiopyrano[4,3-d]pyrimidin-2-yl)phenyl)pyrimidin-5-yl)boronic acid], for which the pIC50 is 6.30 in data set [1] and 8.52 at Tankyrase 2 (TNKS2).
The matching figures for `O=c1[nH]c(-c2c(F)cc(-c3ccc(B(O)O)cc3)cc2F)nc2c1CSCC2` [Compound 25, (3′,5′-difluoro-4′-(4-oxo-3,5,7,8-tetrahydro-4H-thiopyrano[4,3-d]pyrimidin-2-yl)-[1,1′-biphenyl]-4-yl)boronic acid]: 5.60 and 7.20.
The matching figures for `O=c1[nH]c(-c2ccc(-c3ccc(B(O)O)cc3)cc2O)nc2c1CSCC2` [Compound 26, (3′-hydroxy-4′-(4-oxo-3,5,7,8-tetrahydro-4H-thiopyrano[4,3-d]pyrimidin-2-yl)-[1,1′-biphenyl]-4-yl)boronic acid]: 6.19 and 7.62.
As to `O=c1[nH]c(-c2ccc(-c3ccc(B(O)O)c(O)c3)cc2)nc2c1CSCC2` [Compound 27, (3-hydroxy-4′-(4-oxo-3,5,7,8-tetrahydro-4H-thiopyrano[4,3-d]pyrimidin-2-yl)-[1,1′-biphenyl]-4-yl)boronic acid], the values for the pIC50 (in data set [1]; on Tankyrase 2 (TNKS2)) were 7.44 and 8.70, respectively.
On the same counts, the results for `O=c1[nH]c(-c2ccc(-c3ccc(B(O)O)cc3O)cc2)nc2c1CSCC2` [Compound 28, (2-hydroxy-4′-(4-oxo-3,5,7,8-tetrahydro-4H-thiopyrano[4,3-d]pyrimidin-2-yl)-[1,1′-biphenyl]-4-yl)boronic acid] are 8.70 and 8.70.
On the same counts, the results for `COC(=O)NCCOC(C)(C)c1ccc(-c2ccc(-c3nc4c(c(=O)[nH]3)CSCC4)cc2)cc1` [Compound 29, methyl (2-((2-(4′-(4-oxo-3,5,7,8-tetrahydro-4H-thiopyrano[4,3-d]pyrimidin-2-yl)-[1,1′-biphenyl]-4-yl)propan-2-yl)oxy)ethyl)carbamate] are 7.00 and 9.00.

In general, pIC50 refers to the IC50 on a negative log10 scale, so that one unit is a factor of ten. Low values mean a high IC50, high ones a low IC50.
